# Assay results reported in patent US20260091209A1, “DRUG DELIVERY DEVICE” (priority 2022, published 2026).
# Columns and labels:
# [1] = Drug release rate into 50:50 DMSO:water release media, HPLC; format: physicochemical; conditions: for completeness of release after 7 days / course of release (plateau): FOLFIRINOX components from device, FIG. 5; for course of release (plateau): over 7 days
# Method: Drug release rate was measured using 50 mL of release media consisting of 50:50 DMSO:water to ensure that all drugs in the composition remained under sink conditions. Each device was suspended above the release media in a 50 mL sealed Duran bottle with only the permeable release zone in contact with the release media. The Duran bottle was subsequently placed in a shaking incubator at 37° C. and 60 RPM. 5 mL samples of release media were removed and replaced with 5 mL of fresh media either every day for 6 days or at day 1, 3, 5 and 7. The samples were analysed for drug concentration using HPLC.
# Release of the drug oxaliplatin by (i) an exposed sponge and (ii) a device according to the present invention was compared. The sponge was a gelatin sponge exposed to 50 mL of release media consisting of 50:50 DMSO. The sponge had the proportions 5 mm×10 mm×10 mm. […] The implantable device according to the invention contained a sponge within the enclosed space. Drug release was determined according to the methodology outlined above.
# Release of the drug components of the FOLFIRINOX regimen from a device according to the invention was investigated. […] The implantable device according to the invention contained a sponge within the enclosed space. Drug release was determined according to the methodology outlined above.
# The release of the drug irinotecan over 6 days through various membranes for use as the permeable release zone was investigated, to show how the device of the invention provides the skilled person with control over the release profile for the drug, by varying properties of the membrane.
# pancreatic cancer = conditions: cited from earlier work
# [2] = 1 mm EVA membrane, no pores, 75% infill
smiles,measurement,setting,value
CCc1c2c(nc3ccc(OC(=O)N4CCC(N5CCCCC5)CC4)cc13)-c1cc3c(c(=O)n1C2)COC(=O)[C@]3(O)CC [irinotecan],"release rate, membrane pore sizes 3 mm, 4 mm and 5 mm","[1]; 4 pores each, over 6 days, FIG. 6D",as pore size increased the rate of release also increased
same,completeness of release after 7 days,[1]; [2],still not complete
same,course of release (plateau),[1]; [2],began to plateau after three days
same,release character across all membranes investigated,"[1]; device, over 6 days",useful sustained release
same,"release rate, membrane thickness 1 mm versus 2 mm","[1]; device, over 6 days, FIG. 6A",released faster through the membrane with a thickness of 1 mm
same,"release rate, 3D printed membrane infill 50%, 75% and 100%","[1]; device, over 6 days, FIG. 6B","as the percentage infill increased, the release rate slowed"
same,"release rate, membranes with one, two or four pores","[1]; pores 3 mm diameter, over 6 days, FIG. 6C",as the number of pores increased the rate of release also increased
O=C1[O][Pt]2([NH][C@@H]3CCCC[C@H]3[NH]2)[O]C1=O [oxaliplatin],completeness of release after 7 days,[1]; [2],still not complete
same,course of release (plateau),[1]; [2],began to plateau after three days
same,completeness of release at 7 days (168 hours),"[1]; device, 1 mm EVA membrane, no pores, 75% infill, sponge inside, FIG. 4",not complete
same,release plateau,"[1]; device, 1 mm EVA membrane, no pores, 75% infill, after 5 days, FIG. 4",75%
same,time to complete release,"[1]; exposed gelatin sponge (comparative), FIG. 3",≤ 7 h
Nc1ccn([C@@H]2O[C@H](CO)[C@@H](O)C2(F)F)c(=O)n1 [gemcitabine],median disease-free survival,"pancreatic cancer; Conroy et al (2018), patients after surgery",12.8 months
same,disease-free survival rate at 3 years,pancreatic cancer; Conroy et al (2018),21.4%
same,median overall survival,pancreatic cancer; Conroy et al (2018),35.0 months
same,overall survival rate at 3 years,pancreatic cancer; Conroy et al (2018),48.6%
same,"adverse events of grade 3 or 4, share of patients",pancreatic cancer; Conroy et al.,52.9%
Nc1nc2c(c(=O)[nH]1)N(C=O)C(CNc1ccc(C(=O)N[C@@H](CCC(=O)O)C(=O)O)cc1)CN2 (stereo partly drawn) [leucovorin],completeness of release after 7 days,[1]; [2],still not complete
same,course of release (plateau),[1]; [2],began to plateau after three days
O=c1[nH]cc(F)c(=O)[nH]1 [fluorouracil],completeness of release after 7 days,[1]; [2],still not complete
same,course of release (plateau),[1]; [2],began to plateau after three days
